Results reported in ChEMBL document CHEMBL1687921, “Natural product-based phenols as novel probes for mycobacterial and fungal carbonic anhydrases” (J Med Chem, 2011).

Assays:
[1] = biological target: T1, Beta-carbonic anhydrase 1 (Mycobacterium tuberculosis, UniProt P9WPJ7)
T1 sequence (P9WPJ7 whole entry): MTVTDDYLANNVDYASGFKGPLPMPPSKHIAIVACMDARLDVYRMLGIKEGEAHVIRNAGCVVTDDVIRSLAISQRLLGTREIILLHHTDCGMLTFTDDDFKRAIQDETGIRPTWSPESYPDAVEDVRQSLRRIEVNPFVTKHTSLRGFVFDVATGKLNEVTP
Description: Inhibition of Mycobacterium tuberculosis recombinant Rv1284 beta-carbonic anhydrase after 15 mins by stopped flow CO2 hydration assay

Carbonic anhydrase 2 [2] = biological target: T2, Carbonic anhydrase 2 (Cryptococcus neoformans, UniProt Q3I4V7)
T2 sequence (Q3I4V7 whole entry): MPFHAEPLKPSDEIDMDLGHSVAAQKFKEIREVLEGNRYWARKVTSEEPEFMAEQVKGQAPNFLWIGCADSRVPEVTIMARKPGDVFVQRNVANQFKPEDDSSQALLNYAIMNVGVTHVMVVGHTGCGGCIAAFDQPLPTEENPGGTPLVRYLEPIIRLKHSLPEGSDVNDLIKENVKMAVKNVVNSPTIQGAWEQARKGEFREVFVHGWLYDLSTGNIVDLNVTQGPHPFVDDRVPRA
Description: Inhibition of Cryptococcus neoformans recombinant Can2 beta-carbonic anhydrase after 15 mins by stopped flow CO2 hydration assay

Carbonic anhydrase = biological target: T3, Carbonic anhydrase (Candida albicans (strain SC5314 / ATCC MYA-2876) (Yeast), UniProt Q5AJ71)
T3 sequence (Q5AJ71 whole entry): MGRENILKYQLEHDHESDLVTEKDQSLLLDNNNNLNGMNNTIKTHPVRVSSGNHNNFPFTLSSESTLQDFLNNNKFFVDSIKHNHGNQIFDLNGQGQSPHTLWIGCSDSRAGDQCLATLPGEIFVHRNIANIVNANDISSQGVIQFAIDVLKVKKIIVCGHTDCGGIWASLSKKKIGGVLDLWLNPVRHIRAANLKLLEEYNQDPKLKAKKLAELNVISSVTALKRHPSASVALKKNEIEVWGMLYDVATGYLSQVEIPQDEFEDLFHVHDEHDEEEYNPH
Description: Inhibition of Candida albicans recombinant Nce103 beta-carbonic anhydrase after 15 mins by stopped flow CO2 hydration assay

[3] = biological target: T4, PROBABLE TRANSMEMBRANE CARBONIC ANHYDRASE (CARBONATE DEHYDRATASE) (CARBONIC DEHYDRATASE) (Mycobacterium tuberculosis, UniProt P96878)
T4 sequence (P96878 whole entry): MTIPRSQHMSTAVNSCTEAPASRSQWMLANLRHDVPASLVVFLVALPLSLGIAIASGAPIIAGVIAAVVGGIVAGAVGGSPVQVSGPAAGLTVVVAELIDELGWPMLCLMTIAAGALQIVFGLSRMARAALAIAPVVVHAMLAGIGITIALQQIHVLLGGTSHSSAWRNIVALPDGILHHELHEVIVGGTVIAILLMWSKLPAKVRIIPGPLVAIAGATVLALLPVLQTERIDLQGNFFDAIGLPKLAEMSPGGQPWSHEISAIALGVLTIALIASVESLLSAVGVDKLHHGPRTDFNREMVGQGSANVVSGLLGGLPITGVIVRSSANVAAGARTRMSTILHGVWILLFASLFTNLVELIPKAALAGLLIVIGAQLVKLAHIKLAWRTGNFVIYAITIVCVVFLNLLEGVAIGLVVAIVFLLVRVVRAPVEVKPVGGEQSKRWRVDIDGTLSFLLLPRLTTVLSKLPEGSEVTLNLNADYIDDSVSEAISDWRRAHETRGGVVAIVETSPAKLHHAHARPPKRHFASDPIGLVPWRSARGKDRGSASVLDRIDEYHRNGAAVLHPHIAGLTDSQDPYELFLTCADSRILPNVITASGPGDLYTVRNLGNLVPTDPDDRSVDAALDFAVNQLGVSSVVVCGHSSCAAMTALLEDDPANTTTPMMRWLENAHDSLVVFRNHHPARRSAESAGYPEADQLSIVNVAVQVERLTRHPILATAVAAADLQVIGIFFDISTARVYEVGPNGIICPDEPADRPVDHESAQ
Description: Inhibition of Mycobacterium tuberculosis recombinant Rv3273 beta-carbonic anhydrase after 15 mins by stopped flow CO2 hydration assay

Carbonic anhydrase 2 [4] = biological target: Carbonic anhydrase 2 (Homo sapiens, UniProt P00918)
Description: Inhibition of human recombinant alpha-carbonic anhydrase 2 after 15 mins by stopped flow CO2 hydration assay

Carbonic anhydrase 1 = Carbonic anhydrase 1 (Homo sapiens, UniProt P00915)
Description: Inhibition of human recombinant alpha-carbonic anhydrase 1 after 15 mins by stopped flow CO2 hydration assay

[5] = biological target: T5, Beta-carbonic anhydrase 1 (Mycobacterium tuberculosis) (UniProt P9WPJ7)
T5 sequence (whole entry): T1 sequence (P9WPJ7 whole entry)

Sequence of Carbonic anhydrase 1 (P00915 whole entry): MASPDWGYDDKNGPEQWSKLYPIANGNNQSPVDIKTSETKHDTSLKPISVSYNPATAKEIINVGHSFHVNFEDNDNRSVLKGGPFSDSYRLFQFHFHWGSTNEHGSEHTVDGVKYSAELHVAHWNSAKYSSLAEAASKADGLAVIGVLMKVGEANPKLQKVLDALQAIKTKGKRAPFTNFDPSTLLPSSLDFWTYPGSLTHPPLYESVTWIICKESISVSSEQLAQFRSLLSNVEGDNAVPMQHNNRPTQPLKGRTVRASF

For NS(=O)(=O)Cc1noc2ccccc12 [ZONISAMIDE], which Ki [1] is on record?
The Ki was 287000 nM.

COc1ccc(CCNC(=O)Cc2ccc(O)c(Cl)c2)cc1OC was tested. Which Ki (Carbonic anhydrase 2 [2]) did it give?
The Ki was 860 nM.

What about the Ki [1] of the same molecule?
The Ki was 1780 nM.

And the Ki (Carbonic anhydrase)?
The Ki was 750 nM.

What about the Ki [3] of the same molecule?
The Ki was 900 nM.

Which results are given for NC(=O)Cc1ccc(O)cc1?
Ki (Carbonic anhydrase 2 [2]): 840 nM; Ki [1]: 850 nM; Ki (Carbonic anhydrase): 910 nM; Ki [3]: 9120 nM

How did the Ki (Carbonic anhydrase 2 [2]) turn out when NC1=N/C(=C\c2ccc(O)c(O)c2)C(=O)N1 [POLYANDROCARPAMINE B] was run?
The Ki was 950 nM.

And the Ki [1]?
The Ki was 910 nM.

And the Ki (Carbonic anhydrase)?
The Ki was 900 nM.

And the Ki [3]?
Its Ki is 920 nM.

Which Ki (Carbonic anhydrase 2 [2]) does the source give for OCCc1ccc(O)cc1 [TYROSOL] here?
Its Ki is 1080 nM.

What about the Ki (Carbonic anhydrase 2 [4]) of the same molecule?
Its Ki is 8700 nM.

What about the Ki (Carbonic anhydrase 1) of the same molecule?
The Ki was 430000 nM.

And the Ki [1]?
Its Ki is 850 nM.

What about the Ki (Carbonic anhydrase) of the same molecule?
Its Ki is 1100 nM.

What about the fold change (FC) [5] of the same molecule?
Its fold change (FC) is 75.

And the Ki [3]?
Its Ki is 12100 nM.

Which results are given for Oc1ccccc1 [PHENOL]?
Ki (Carbonic anhydrase 2 [2]): 25900 nM; Ki [1]: 64000 nM; Ki (Carbonic anhydrase): 17300 nM; Ki [3]: 79000 nM

How did the Ki (Carbonic anhydrase 2 [2]) turn out when CCCCNC(=O)Cc1ccc(O)c(Cl)c1 was run?
Its Ki is 730 nM.

What about the Ki (Carbonic anhydrase 2 [4]) of the same molecule?
Its Ki is 9400 nM.

And the Ki (Carbonic anhydrase 1)?
The Ki was 10700 nM.

What about the Ki [1] of the same molecule?
The Ki was 11600 nM.

What about the Ki (Carbonic anhydrase) of the same molecule?
Its Ki is 810 nM.

What about the Ki [3] of the same molecule?
Its Ki is 10400 nM.

For COCCNC(=O)Cc1ccc(O)c(Cl)c1, which Ki (Carbonic anhydrase 2 [2]) is on record?
Its Ki is 950 nM.

And the Ki (Carbonic anhydrase 2 [4])?
The Ki was 10400 nM.

What about the Ki (Carbonic anhydrase 1) of the same molecule?
Its Ki is 158000 nM.

And the Ki [1]?
The Ki was 11000 nM.

What about the Ki (Carbonic anhydrase) of the same molecule?
Its Ki is 990 nM.

What about the Ki [3] of the same molecule?
The Ki was 1140 nM.

With O=C(Cc1ccc(O)c(Cl)c1)NCc1ccccc1 as the molecule, how does the Ki (Carbonic anhydrase 2 [2]) read?
Its Ki is 720 nM.

What about the Ki (Carbonic anhydrase 2 [4]) of the same molecule?
Its Ki is 11400 nM.

What about the Ki (Carbonic anhydrase 1) of the same molecule?
Its Ki is 10500 nM.

And the Ki [1]?
The Ki was 12200 nM.

And the Ki (Carbonic anhydrase)?
Its Ki is 780 nM.

What about the Ki [3] of the same molecule?
The Ki was 980 nM.

What does the source list for COc1cc([C@@H]2[C@@H](C)[C@H](C)[C@H]2c2ccc(O)c(OC)c2)ccc1O [ENDIANDRIN A]?
Ki (Carbonic anhydrase 2 [2]): 770 nM; Ki (Carbonic anhydrase 2 [4]): 11700 nM; Ki (Carbonic anhydrase 1): 368000 nM; Ki [1]: 820 nM; Ki (Carbonic anhydrase): 730 nM; Ki [3]: 8920 nM

With NC(=O)Cc1ccc(O)c(Cl)c1 as the molecule, how does the Ki (Carbonic anhydrase 2 [2]) read?
The Ki was 850 nM.

And the Ki [1]?
Its Ki is 10500 nM.

What about the Ki (Carbonic anhydrase) of the same molecule?
The Ki was 1000 nM.

And the Ki [3]?
The Ki was 11200 nM.

For COc1cc(C)cc2oc3ccc(O)c(C(=O)O)c3c(=O)c12, which Ki (Carbonic anhydrase 2 [2]) is on record?
The Ki was 1120 nM.

What about the Ki [1] of the same molecule?
Its Ki is 10500 nM.

What about the Ki (Carbonic anhydrase) of the same molecule?
Its Ki is 1060 nM.

What about the Ki [3] of the same molecule?
The Ki was 11400 nM.

Which results are given for COC(=O)/C=C/C(=O)N[C@@H](Cc1ccc(O)c(Cl)c1)C(=O)O [(+)-XYLARIAMIDE A]?
Ki (Carbonic anhydrase 2 [2]): 1110 nM; Ki [1]: 710 nM; Ki (Carbonic anhydrase): 1060 nM; Ki [3]: 10900 nM

Which Ki [3] does the source give for Nc1ccc(S(N)(=O)=O)cc1 [SULFANILAMIDE] here?
The Ki was 7110 nM.

What does the source list for O=C(O)Cc1ccc(O)c(Cl)c1?
Ki (Carbonic anhydrase 2 [2]): 1120 nM; Ki [1]: 10300 nM; Ki (Carbonic anhydrase): 1080 nM; Ki [3]: 10800 nM

Which results are given for CC(C)(C)NC(=O)Cc1ccc(O)c(Cl)c1?
Ki (Carbonic anhydrase 2 [2]): 910 nM; Ki [1]: 12300 nM; Ki (Carbonic anhydrase): 960 nM; Ki [3]: 10200 nM

How did the Ki (Carbonic anhydrase 2 [2]) turn out when O=C(Cc1ccc(O)c(Cl)c1)NCCc1ccccc1 was run?
Its Ki is 810 nM.

What about the Ki (Carbonic anhydrase 2 [4]) of the same molecule?
Its Ki is 9800 nM.

And the Ki (Carbonic anhydrase 1)?
The Ki was 9600 nM.

What about the Ki [1] of the same molecule?
Its Ki is 800 nM.

And the Ki (Carbonic anhydrase)?
The Ki was 930 nM.

What about the Ki [3] of the same molecule?
Its Ki is 970 nM.

With CC1(C)O[C@@H]2[C@@H](CO[C@@]3(COS(N)(=O)=O)OC(C)(C)O[C@@H]23)O1 [TOPIRAMATE] as the molecule, how does the Ki [3] read?
The Ki was 3020 nM.

O=C(O)Cc1ccc(O)cc1 was tested. Which Ki (Carbonic anhydrase 2 [2]) did it give?
The Ki was 900 nM.

And the Ki (Carbonic anhydrase 2 [4])?
The Ki was 10300 nM.

What about the Ki (Carbonic anhydrase 1) of the same molecule?
The Ki was 309000 nM.

And the Ki [1]?
The Ki was 10800 nM.

And the Ki (Carbonic anhydrase)?
The Ki was 1020 nM.

And the Ki [3]?
Its Ki is 11400 nM.

How did the Ki (Carbonic anhydrase 2 [2]) turn out when COc1cc(C[C@@H](C)[C@H](C)Cc2ccc(O)c(OC)c2)ccc1O [(-)-DIHYDROGUAIARETICACID] was run?
Its Ki is 810 nM.

And the Ki (Carbonic anhydrase 2 [4])?
Its Ki is 230000 nM.

And the Ki (Carbonic anhydrase 1)?
The Ki was 307000 nM.

And the Ki [1]?
Its Ki is 850 nM.

What about the Ki (Carbonic anhydrase) of the same molecule?
Its Ki is 620 nM.

What about the Ki [3] of the same molecule?
Its Ki is 9100 nM.

How did the Ki (Carbonic anhydrase 2 [2]) turn out when COc1cc(/C=C2\N=C(N)NC2=O)ccc1O [POLYANDROCARPAMINE A] was run?
The Ki was 890 nM.

And the Ki (Carbonic anhydrase 2 [4])?
Its Ki is 9600 nM.

And the Ki (Carbonic anhydrase 1)?
Its Ki is 10500 nM.

And the Ki [1]?
Its Ki is 11800 nM.

What about the Ki (Carbonic anhydrase) of the same molecule?
The Ki was 920 nM.

What about the Ki [3] of the same molecule?
Its Ki is 910 nM.

Which results are given for COc1cc([C@@H]2[C@@H](C)[C@@H](C)[C@@H]2c2ccc(O)c(OC)c2)ccc1O [ENDIANDRIN B]?
Ki (Carbonic anhydrase 2 [2]): 950 nM; Ki (Carbonic anhydrase 2 [4]): 12100 nM; Ki (Carbonic anhydrase 1): 354000 nM; Ki [1]: 800 nM; Ki (Carbonic anhydrase): 700 nM; Ki [3]: 890 nM

Which results are given for COc1cc(CO)cc2oc3ccc(O)c(C(=O)O)c3c(=O)c12?
Ki (Carbonic anhydrase 2 [2]): 1080 nM; Ki [1]: 990 nM; Ki (Carbonic anhydrase): 1010 nM; Ki [3]: 10900 nM

What does the source list for NS(=O)(=O)c1ccc(CCNC(=O)Cc2ccc(O)c(Cl)c2)cc1?
Ki (Carbonic anhydrase 2 [2]): 740 nM; Ki [1]: 1160 nM; Ki (Carbonic anhydrase): 790 nM; Ki [3]: 850 nM

Which Ki (Carbonic anhydrase 2 [2]) does the source give for COC(=O)/C=C/C(=O)N[C@H](Cc1ccc(O)c(Cl)c1)C(=O)O [(-)-XYLARIAMIDE A] here?
The Ki was 1150 nM.

What about the Ki [1] of the same molecule?
The Ki was 840 nM.

What about the Ki (Carbonic anhydrase) of the same molecule?
The Ki was 1030 nM.

What about the Ki [3] of the same molecule?
The Ki was 11300 nM.

Which Ki (Carbonic anhydrase 2 [2]) does the source give for COc1cccc(CCNC(=O)Cc2ccc(O)c(Cl)c2)c1 here?
Its Ki is 940 nM.

What about the Ki [1] of the same molecule?
The Ki was 1270 nM.

What about the Ki (Carbonic anhydrase) of the same molecule?
The Ki was 720 nM.

And the Ki [3]?
Its Ki is 910 nM.
